Here are results for 10 substances from the OligoGym collection.

HELM strings list units from the 5' end as sugar, base in round brackets, then linkage (d deoxyribose, r ribose, m 2'-O-methyl, p phosphodiester). Strings are as the collection lists them; they lack the last nucleoside at the 3' end of the tested compound. [moe] = 2'-O-(2-methoxyethyl) (MOE); [sp] = phosphorothioate linkage; [m5C] = 5-methylcytosine

The data set deals with SCN2A. The data set is described as follows: mouse, dose not given. To be noted: ASO.
“RNA1{[moe](A)[sp].[moe]([m5C])p.[moe]([m5C])p.[moe]([m5C])p.[moe](A)p.d(G)[sp].d(T)[sp].d(T)[sp].d(T)[sp].d(T)[sp].d(T)[sp].d(T)[sp].d([m5C])[sp].d(A)[sp].d(T)[sp].[moe](T)p.[moe](G)p.[moe]([m5C])[sp].[moe](A)}$$$$ (last 3' nucleoside missing)”: the 3 h FOB score came to 0 score 0-7. The figure for “RNA1{[moe]([m5C])[sp].[moe](A)p.[moe](T)p.[moe](G)[sp].d(T)[sp].d(A)[sp].d(A)[sp].d([m5C])[sp].d([m5C])[sp].d(T)[sp].d(T)[sp].d(T)[sp].[moe](A)p.[moe](T)p.[moe](A)p.[moe]([m5C])[sp].[moe](A)}$$$$ (last 3' nucleoside missing)” is 0 score 0-7. As to “RNA1{[moe](A)[sp].[moe](T)p.[moe](A)p.[moe](T)p.[moe](T)p.[moe](T)p.d(T)[sp].d(T)[sp].d([m5C])[sp].d(T)[sp].d(A)[sp].d([m5C])[sp].d(A)[sp].d([m5C])[sp].d(T)[sp].d(G)[sp].[moe]([m5C])p.[moe](T)[sp].[moe](G)}$$$$ (last 3' nucleoside missing)”, the 3 h FOB score was 2 score 0-7.

For the substance “RNA1{[moe](T)[sp].[moe]([m5C])p.[moe](T)p.[moe](G)p.d([m5C])[sp].d(A)[sp].d(T)[sp].d(G)[sp].d(T)[sp].d(A)[sp].d(A)[sp].d([m5C])[sp].d([m5C])[sp].d(T)[sp].[moe](T)p.[moe](T)p.[moe](A)p.[moe](T)[sp].[moe](A)}$$$$ (last 3' nucleoside missing)”, the 3 h FOB score worked out at 1 score 0-7. Then “RNA1{[moe](G)[sp].[moe](T)p.[moe](A)p.[moe](A)p.d([m5C])[sp].d([m5C])[sp].d(T)[sp].d(T)[sp].d(T)[sp].d(A)[sp].d(T)[sp].d(A)[sp].d([m5C])[sp].d(A)[sp].[moe](T)p.[moe](T)p.[moe](T)p.[moe](A)[sp].[moe](A)}$$$$ (last 3' nucleoside missing)”, with 0 score 0-7. Then “RNA1{[moe](G)[sp].[moe]([m5C])p.[moe](A)p.[moe](T)p.[moe](A)p.d(A)[sp].d(T)[sp].d([m5C])[sp].d([m5C])[sp].d([m5C])[sp].d(A)[sp].d(T)[sp].d(T)[sp].d(A)[sp].d(T)[sp].[moe](A)p.[moe]([m5C])p.[moe](A)[sp].[moe](A)}$$$$ (last 3' nucleoside missing)”, with 0.5 score 0-7; and “RNA1{[moe]([m5C])[sp].[moe](A)p.[moe](T)p.[moe](A)p.[moe](A)p.d(T)[sp].d([m5C])[sp].d([m5C])[sp].d([m5C])[sp].d(A)[sp].d(T)[sp].d(T)[sp].d(A)[sp].d(T)[sp].d(A)[sp].[moe]([m5C])p.[moe](A)p.[moe](A)[sp].[moe](A)}$$$$ (last 3' nucleoside missing)”, with 0 score 0-7; and “RNA1{[moe]([m5C])[sp].[moe](A)p.[moe](T)p.[moe](T)p.d(T)[sp].d([m5C])[sp].d(T)[sp].d(A)[sp].d(T)[sp].d(A)[sp].d(A)[sp].d([m5C])[sp].d(T)[sp].d([m5C])[sp].[moe](A)p.[moe](G)p.[moe]([m5C])p.[moe](A)[sp].[moe](A)}$$$$ (last 3' nucleoside missing)”, with 0 score 0-7. Then “RNA1{[moe](A)[sp].[moe]([m5C])p.[moe]([m5C])p.[moe]([m5C])p.[moe](A)p.[moe](G)[sp].d(T)[sp].d(T)[sp].d(T)[sp].d(T)[sp].d(T)[sp].d(T)[sp].d([m5C])[sp].d(A)[sp].[moe](T)p.[moe](T)[sp].[moe](G)}$$$$ (last 3' nucleoside missing)”, with 2 score 0-7; and “RNA1{[moe](A)[sp].[moe]([m5C])p.[moe]([m5C])p.[moe](A)p.[moe]([m5C])p.[moe](G)p.d([m5C])[sp].d(T)[sp].d(T)[sp].d(A)[sp].d([m5C])[sp].d(A)[sp].d(T)[sp].d([m5C])[sp].d(A)[sp].d(A)[sp].[moe](A)p.[moe]([m5C])[sp].[moe](A)}$$$$ (last 3' nucleoside missing)”, with 0 score 0-7.
